Experimental data taken from patent publication US20200270309A1, “MALEIMIDE GROUP-MODIFIED ANGIOGENESIS INHIBITOR HM-1 AND USE THEREOF” (NANJING ANJI BIOLOGICAL TECHNOLOGY CO., LTD, priority 2017, published 2020).
Marks after values point to notes of the source that are not given here. Peptide text beside a SMILES is read from it. * marks the point of attachment. X59 = O=C1C=CC(=O)N1c1cccc(CCCCCCCCC(=O)*)c1; X63 = O=C1C=CC(=O)N1c1ccccc1CCCCCCC(=O)*

Tests used:
[1] = Half-lives and pharmacokinetic parameters of polypeptides vs HM-1; settings: in vivo; for half-life: T1/2β (half-life)
HUVECs = test: Transwell migration inhibition on HUVECs; type: cell-based, human; settings: for Inhibition rate (%): HUVEC migration vs blank control; for Cell migration number (Mean ± SD): HUVECs, transwell, 24 h
[2] = system: IL-1β production by mouse peritoneal macrophages; test: IL-1β production by mouse peritoneal macrophages (ELISA); type: cell-based; settings: for Inhibition rate: IL-1β production, vs model group; for IL-1β: mouse peritoneal macrophages, 48 h, ELISA
Procedure: Mice were injected intraperitoneally with 1 mL of broth culture medium (containing 6% of starch). Three days later, mice peritoneal macrophages were taken aseptically and washed twice with 1640 culture medium, and the cell concentration was adjusted to 2×10^6 cells/mL. The solutions were injected into 24-well culture plates at 1 mL per well. The cells were incubated in a cell incubator for 3 h and vibrated once every 30 min to make the cells fully adhere to the wall. Then, the cells were washed twice with a culture solution to remove non-adhered cells. PBS was added to the blank group, positive drug Dex was added to the positive group, no drug was added to the model group, and polypeptides X1-X90 with low, medium and high concentrations were added to the test groups; and the cells were continuously cultured for 48 h after administration, and then centrifuged at 1000 r/min for 15 min. The supernatant was collected as a sample to be tested for IL-1β activity.

[3] = system: xylene-induced ear swelling; test: Xylene-induced mouse ear swelling; type: in vivo; settings: Kunming mice, injected once a day for 5 days; for Swelling degree / Swelling degree (mg): right minus left ear piece weight 2 h after xylene; for Inhibition rate (%): xylene-induced ear swelling
Procedure: Kunming mice were taken, a normal saline group was taken as a blank control group, an aspirin group (200 mg/kg) was taken as a positive control group, and X1-X90 administration groups were taken as test groups. The mice were injected once a day for 5 consecutive days. The blank control group was given an equal volume of normal saline. One hour after the last administration, 0.05 mL of xylene was applied to both sides of the right ear of each mouse to cause inflammation, while no drug was applied to the left ear as a normal ear. Two hours later, the mice were put to death by dislocation. Two ears were cut along the auricle. Ear pieces were taken with a puncher and weighed, and the swelling degree and the swelling rate were calculated. Swelling degree=right ear piece weight-left ear piece weight, swelling rate=(swelling degree/left ear piece weight)*100%. Statistical t-test was conducted on the experimental results. *P<0.05 indicates significant difference, and **P<0.01 indicates extremely significant difference.

[4] = system: collagen-induced arthritis; test: Mouse collagen-induced arthritis (CIA) animal model; type: in vivo; settings: DBA/1 mice CIA model, dose 4.0 mg/kg, subcutaneous from day 30, n=10; for Clinical score: highest score 16
[5] = system: retinal neovascularization (OIR model); test: Retinal vessels in OIR mice; type: in vivo, C57/B16 mice; settings: for Area of neovascular plexus (mm^2): dose 0.05 μM in the vitreous chamber on day 13, retinal vessels evaluated on day 17; for Inhibition rate (%): dose 0.05 μM in the vitreous chamber on day 13, retinal vessels evaluated on day 17, vs negative control
Description: Establishment of an OIR model: Young mice and their mothers were exposed in a 75% hyperoxic environment from day 7 to day 12 after the birth of C57/B16 mice, which caused capillaries in their central retina to disappear rapidly. The mice were returned to the indoor air on day 12, retinal vessels exposed to hyperoxia quickly disappeared, causing extensive abnormal neoangiogenesis, and the central part of the retina remained largely avascular for a long time. After the blood vessels disappeared completely, the mice were injected with normal saline (a negative group), X1-X12, X13-X44, X45-X90 in the vitreous chamber on day 13 respectively, and retinal vessels were evaluated on day 17 ([…] of Texas red labeled tomato agglutinin was injected into the left ventricle to mark unclosed vessels and circulated for 5 min).

[6] = system: retinal vascular endothelial nuclei; test: Neovascularization in a rat model of premature retinopathy; type: in vivo, rats; settings: dose 0.05 μM in the vitreous chamber from day 7 of modeling for one week; counted on day 14; oxygen-induced neonatal rats
Procedure: Using a fluctuating oxygen-induced animal model, newborn rats born naturally on the same day (within 12 h) were randomly divide into three groups: an oxygen model group, an oxygen treatment group and a normal control group. The oxygen model was further divided into three sub-group model groups, and the sub-group model groups and the treatment group were all placed in a semi-closed oxygen chamber made of organic glass; medical oxygen was introduced into the chamber, and the concentration was adjusted to 80%±2% by an oxygen meter; nitrogen was introduced into the oxygen chamber after 24 h, and the oxygen concentration was adjusted to 10%±2% rapidly and maintained for 24 h. This was repeated to keep the oxygen concentration in the oxygen chamber alternating between 80% and 10% every 24 h, the oxygen concentration was maintained for 7 d, and then the rats were fed in the air. The oxygen concentration was monitored 8 times a day, and the ambient temperature in the chamber was controlled at 23° C.±2° C. Bedding was replaced, feed was added, and water and mother rats were replaced once. The normal control group was placed in the animal room feeding environment. […] The oxygen treatment group was divided into three subgroups. On day 7 of modeling, X1-[…], […]-[…] and […]-X90 were injected in the vitreous chamber respectively, and the oxygen model group and the control group were only given normal saline for one week. On day 14, after the rats were anesthetized by diethyl ether and killed, eyeballs were extracted and fixed in 40 g/L paraformaldehyde solution for 24 h. Gradient dehydration by alcohol was performed, and the eyeballs were processed by xylene to be transparent. After waxing, the eyeballs were sectioned continuously to a thickness of 4μm, and the periphery of the optic disc should be avoided as much as possible. The sections were parallel to the sagittal plane from cornea to the optic disc. Ten sections of each eyeball were randomly taken and stained with hematoxylin eosin, the number of vascular endothelial nuclei that broke through the inner limiting membrane of the retina (only the number of vascular endothelial nuclei closely related to the inner limiting membrane were counted) was counted, and statistics of the average number of cells per section per eyeball was performed. Results: In the control group, there were no vascular endothelial nuclei that broke through the inner limiting membrane of the retina and grew into vitreous body, or the vascular endothelial nuclei were occasionally found in only a few sections. In the model group, there were many vascular endothelial nuclei that broke through the inner limiting membrane of the retina, some appeared alone, and some appeared in clusters. At the same time, on some sections, these vascular endothelial nuclei were also found adjacent to deep retinal vessels, confirming that they originated from the retina rather than the vitreous body or other ocular tissues. In the treatment group, only a few vascular endothelial nuclei that broke through the inner limiting membrane of retina could be seen in the sections.

| Compound | AUC(0-inf) [1] | MRT inf [1] | clearance [1] | half-life [1] | Inhibition rate (%) (HUVECs; dose 0.05 μM) | Inhibition rate (%) (HUVECs; dose 0.1 μM) | Inhibition rate (%) (HUVECs; dose 0.2 μM) | Cell migration number (Mean ± SD) (HUVECs; dose 0.05 μM) | Cell migration number (Mean ± SD) (HUVECs; dose 0.1 μM) | Cell migration number (Mean ± SD) (HUVECs; dose 0.2 μM) | Inhibition rate ([2]; dose 0.05 μM) | IL-1β ([2]; dose 0.05 μM) | Inhibition rate ([2]; dose 0.1 μM) | IL-1β ([2]; dose 0.1 μM) | Inhibition rate ([2]; dose 0.2 μM) | IL-1β ([2]; dose 0.2 μM) | Swelling degree ([3]; dose 2 mg/kg) | Inhibition rate (%) ([3]; dose 2 mg/kg) | Inhibition rate (%) ([3]; dose 4 mg/kg) | Swelling degree (mg) ([3]; dose 8 mg/kg) | other results |
| --- | --- | --- | --- | --- | --- | --- | --- | --- | --- | --- | --- | --- | --- | --- | --- | --- | --- | --- | --- | --- | --- |
| C[C@H](NC(=O)CNC(=O)[C@H](CCCNC(=N)N)NC(=O)CCCCCCc1ccccc1N1C(=O)C=CC1=O)C(=O)N[C@@H](CC(=O)O)C(=O)N[C@@H](CCCNC(=N)N)C(=O)N[C@@H](C)C(=O)NCC(=O)NCC(=O)NCC(=O)NCC(=O)N[C@@H](CCCNC(=N)N)C(=O)NCC(=O)N[C@@H](CC(=O)O)C(=O)O [X18] (X63-RGADRAGGGGRGD-OH) | 27200 ± 7310 ng·h/mL | 48.7 ± 14.1 h | 0.613 mL/min/kg | 33.75 ± 0.27 h | 40.73% | 41.02% | 44.55% | 635.26 ± 59.22 | 632.13 ± 55.39 | 594.30 ± 45.38 | 23.36% | 721.31 ± 12.75 pg/mL | 23.86% | 716.58 ± 16.56 pg/mL | 27.40% | 683.26 ± 19.63 pg/mL | 5.42 ± 0.18 mg | 13.00% | 15.25% | 4.18 ± 0.9** mg | Swelling degree ([3]; dose 4 mg/kg): 5.28 ± 0.46 mg; Inhibition rate (%) ([3]; dose 8 mg/kg): 32.91%; Joint swelling degree (mm) [4]: 0.72 ± 0.11 mm; Left and right paw swelling degree (mm) [4]: 0.79 ± 0.12 mm; Clinical score [4]: 8.91 ± 1.29; Area of neovascular plexus (mm^2) [5]: 0.119 ± 0.011 mm^2; Inhibition rate (%) [5]: 43.87%*; Nuclei count (retinal vascular endothelial nuclei, average per section per eyeball) [6]: 8.002 ± 3.606 |
| C[C@H](NC(=O)CNC(=O)[C@H](CCCNC(=N)N)NC(=O)CCCCCCCCc1cccc(N2C(=O)C=CC2=O)c1)C(=O)N[C@@H](CC(=O)O)C(=O)N[C@@H](CCCNC(=N)N)C(=O)N[C@@H](C)C(=O)NCC(=O)NCC(=O)NCC(=O)NCC(=O)N[C@@H](CCCNC(=N)N)C(=O)NCC(=O)N[C@@H](CC(=O)O)C(=O)O [X32] (X59-RGADRAGGGGRGD-OH) | 30900 ± 7750 ng·h/mL | 55.3 ± 11.8 h | 0.54 mL/min/kg | 38.33 ± 0.31 h | 41.92% | 47.67% | 56.61% | 622.57 ± 49.41 | 560.86 ± 50.91 | 465.06 ± 48.23 | 18.02% | 771.56 ± 13.41 pg/mL | 28.17% | 676.06 ± 19.82 pg/mL | 43.31% | 533.56 ± 18.54 pg/mL | 5.17 ± 0.06 mg | 17.01% | 22.47% | 3.69 ± 0.56** mg | Swelling degree (mg) ([3]; dose 4 mg/kg): 4.83 ± 0.02* mg; Inhibition rate (%) ([3]; dose 8 mg/kg): 40.77%; Joint swelling degree (mm) [4]: 0.81 ± 0.16 mm; Left and right paw swelling degree (mm) [4]: 0.81 ± 0.13 mm; Clinical score [4]: 9.06 ± 1.26; Area of neovascular plexus (mm^2) [5]: 0.096 ± 0.001 mm^2; Inhibition rate (%) [5]: 54.72%**; Nuclei count (retinal vascular endothelial nuclei, average per section per eyeball) [6]: 8.394 ± 2.665 |
